The text below walks through data of patent US20210122771A1, “NEW MOLECULAR TWEEZERS AGAINST NEUROLOGICAL DISORDERS AND VIRAL INFECTIONS” (The Regents of the University of California, priority 2018, published 2021).

In one series the target is KAA. Format: binding. Particulars: fluorometric titration in aqueous buffer at neutral pH; read-out: Dissociation constant Kd, KAA.
A further series concerns the target RGD. It is filed as binding. Particulars: fluorometric titration in aqueous buffer at neutral pH; read-out: Dissociation constant Kd, RGD.
A short description of series [1]: PK screening in mice, three routes, two time points. The note with it: mouse, in vivo. Here is the method:
Each compound was administered to the mice at 2 mg/kg intravenously (I.V.), 2 mg/kg subcutaneously (S.C.), or 10 mg/kg orally (P.O.).

The nature of a further series: Full 24-h PK profile. Format: in vivo, mice. Particulars: mouse, in vivo. The protocol:
Based on the 2-time-point screen results, a full 24-h PK profile has been obtained for compounds 13 and 14. In these experiments, the blood and brain levels were measured at 7 time points—0.3, 0.6, 1, 2, 4, 8, and 24 h. Data for 1 are given for reference.

Regarding `C#CCCOP(=O)(O)Oc1c2c(c(OP(=O)(O)O)c3c1C1CC3c3cc4c(cc31)C1CC4c3ccccc31)C1CC2c2cc3c(cc21)C1CC3c2ccccc21` [Compound 12], the Kd at KAA is 20 µM; at RGD, 60 µM.
Consider `COc1c2c(c(OP(=O)([O-])O)c3c1C1CC3c3cc4c(cc31)C1CC4c3ccccc31)C1CC2c2cc3c(cc21)C1CC3c2ccccc21.[Na+]` [Compound 14], for which, in series [1] (2 mg/kg), the “Bioavailability, 40 min” value worked out at 281.1% and the “Bioavailability, 4 h” value came out at 291.2%. In addition, in series [1] (10 mg/kg), the “Bioavailability, 40 min” value is 3.9% and the “Bioavailability, 4 h” value is given as 20.3%. Further, the “BBB penetration when administered I.V. (compared to 1)” value in series [1] (iv) was “substantially increased”. For the same compound, in series [1] (iv, 2 mg/kg), the “BBB penetration, 40 min” value was found to be 10.0% and the “BBB penetration, 4 h” value was 65.9%. In addition, in series [1] (po, 10 mg/kg), the “BBB penetration, 40 mm” value turned out to be 6.1% and the “BBB penetration, 4 h” value came to 2.6%. Also, in series [1] (sc, 2 mg/kg), the “BBB penetration, 40 min” value came out at 0.1% and the “BBB penetration, 4 h” value stood at 0.4%. The “BBB penetration relative to compound 1” value in “Full 24-h PK profile” is listed as “improved”. In “Full 24-h PK profile” (iv), the “Blood AUC” value was determined as 1880, the “Blood T1/2” value was 1.7 h, the “Brain AUC” value came to 73.2 and the “Brain T1/2” value amounted to 0.8 h. The compound also showed a LogBB in the series “Full 24-h PK profile” (iv) of −1.41. Also, in the series “Full 24-h PK profile” (po), the “Blood AUC” value turned out to be 16.1, the “Blood Bioavailability” value turned out to be 0.9%, the “Blood T1/2” value was 4.4 h and the “Brain AUC” value turned out to be 13.7. For the same compound, in “Full 24-h PK profile” (po), the “Brain T1/2” value is 6.5 h, the LogBB is −0.07 and the “oral bioavailability relative to compound 1” value is “improved”. Also, in the series “Full 24-h PK profile” (sc), the “Blood AUC” value was determined as 1147, the “Blood Bioavailability” value is reported as 61.0%, the “Blood T1/2” value is 14.8 h and the “Brain AUC” value was 4.4. Besides, the LogBB in “Full 24-h PK profile” (sc) is reported as 0.
